From PMC5321639, “Design and pharmacodynamics of recombinant NZ2114 histidine mutants with improved activity against methicillin-resistant Staphylococcus aureus” (AMB Express, 2017)
In brackets after ≈: the same amount, converted by molar mass. Several values for one entry are separate records, joined by “and”; a condition that tells them apart may be missing. Identical values can stand only once. Like-named read-outs stand apart in the source and are kept apart here. Marks after values point to notes of the source that are not given here. Where a SMILES comes first, the peptide text is derived from it. Bridges are numbered along the chain shown (N, C = ends).

Tests used:
S. aureus ATCC43300 [1] = test: Postantibiotic effect (PAE); type: cell-based, Staphylococcus aureus; conditions: 2 h exposure at 37 °C, 1 × 10^8 CFU/ml, drug removed by 1:10^3 dilution, mean ± SD, n = 3
Procedure: After 2 h, the drug was removed by diluting 1:10^3 into the MHB and incubated at 37 °C, 250 rpm. The sample was taken to plate counting every 1 h until the bacterial cultures become turbid. The PAE was calculated by the following formula: PAE = T − C, where T is the time needed for the count of CFU in the test culture to increase 1 log10 (10-fold) above the 0 h and C is the time needed for the count of CFU in the untreated control culture to increase 1 log10 above the 0 h (Giguère et al. [2012]).

mice red blood cells = test: Hemolytic assay; type: cell-based; conditions: 0.23 to 7.27 μM (1–32 μg/ml), 37 °C 1 h
Procedure: The mice blood cells were washed three times in stroke-physiological saline solution (0.9% NaCl) and centrifuged at 4 °C, 2000 rpm for 5 min. A 50-μl cell was diluted to 8% (v/v), added into 96-well plates, and mixed with 50-μl peptide to the final concentrations ranging from […]. The plates were incubated at 37 °C for 1 h, and centrifuged at 4 °C, 5000 rpm for 5 min. The absorbance of supernatants was measured at 540 nm, and 0 and 100% hemolysis was measured by 0.9% NaCl and 0.1% Triton X-100, respectively. The hemolysis percentages were calculated by the following equation: [(Abs540 nm in H1, H2, H3 solution − Abs540 nm in 0.9% NaCl)/(Abs540 nm in 0.1% Triton X-100 − Abs540 nm in 0.9% NaCl)] ×100% (Jiao et al. [2015]).

S. aureus ATCC43300 [2] = test: Effect of proteinases on activity (MIC); type: cell-based, Staphylococcus aureus; conditions: 1:10 w/w proteinase:peptide, 37 °C for 3 h, then MIC assay
Procedure: (§1) The peptide solutions were diluted twofold with the range of final concentrations were 0.015–32 µg/ml (0.003–7.273 µM) for purified H1, H2, H3, H6, and H8. The test strains were grown in MHB medium at 37 °C to an OD600 of 0.4 and diluted to 1 × 10^5 CFU/ml. The 10 µl peptide and 90 µl cell suspension were added into each well. All assays were performed in triplicate. The antimicrobial activity of NZ2114 and vancomycin were tested as positive controls. The plates were incubated at 37 °C for 18–24 h. MIC was defined as the lowest peptide concentration of ones at which there was no visible growth (Tian et al. [2009]).
(§2) The effect of pH, temperature, NaCl concentration and proteinase on the activity of peptides was evaluated. Peptides were diluted twofold, then adjusted to a pH range from 2.0 to 10.0 and incubated at 37 °C for 4 h. The thermal stability of purified peptides was determined after 1-h incubation of peptides at 4, 20, 40, 60, 80 and 100 °C in deionized water, respectively. Aliquots of peptides were incubated in various proteinases solutions [pepsin (pH 2.0), trypsin (pH 8.0), proteinase K (pH 7.0)] at a ratio of 1:10, w/w (proteinase: peptide) at 37 °C for 3 h. For the ion stability, peptides were incubated in 50, 100, 200, 300, 400, 500 mM sodium chloride solutions, respectively. Other methods and conditions were prepared as the MIC assay described above (Li et al. [2015]; Qu et al. [2016]).

S. aureus ATCC43300 [3] = test: Effect of NaCl concentration on activity (MIC); type: cell-based, Staphylococcus aureus
Procedure: as §1, §2

S. aureus ATCC43300 [4] = test: Effect of pH on activity (MIC); type: cell-based, Staphylococcus aureus; conditions: then MIC assay
Procedure: as §1, §2

S. aureus ATCC43300 [5] = test: Effect of temperature on activity (MIC); type: cell-based, Staphylococcus aureus; conditions: then MIC assay
Procedure: as §1, §2

[6] = system: S. aureus ATCC43300 (MRSA); test: Time-kill curve assay; type: cell-based, Staphylococcus aureus; conditions: 1× MIC
Procedure: Bacterial culture (S. aureus ATCC43300) was diluted to 1 × 10^5 CFU/ml and H1, H2, and H3 were added. […] The mixture was cultivated at 250 rpm, 37 °C. The 100-µl samples were taken from each flask at 0, 2, 4, 6, 8, 12 and 24 h of incubation, and serial dilutions of samples were plated to count visible colonies. Vancomycin was tested in the same way as a positive control and the culture without antimicrobial agent as a negative control (Xiong et al. [2011]). All experiments were performed in triplicate.

S. aureus ATCC43300 [7] = test: microbe, parasite or virus in culture; type: cell-based, Staphylococcus aureus; conditions: for MICc (MIC of the most effective combination): checkerboard; for FIC: MICc/MICa
Procedure: The MIC values of four antibiotics (vancomycin, ampicillin, rifampicin and ciprofloxacin) to S. aureus ATCC43300 were tested as the MIC assay described above. The peptide solutions and antibiotics were diluted twofold with the final concentrations ranging from 1/16 to 8× MIC, and added into 96-well plates in a checkerboard fashion (White et al. [1996]). The results of combination were evaluated by calculating the fractional inhibitory concentration index (FICI) of each combination. FIC of H1, H2, H3=MIC of H1, H2, H3, respectively, in combination with antibiotic/MIC of H1, H2, H3 alone; FIC of antibiotics=MIC of antibiotic in combination with peptide/MIC of antibiotic alone; FICI = FIC of H1, H2, H3+ antibiotic, respectively. The result of interaction between two antimicrobial drugs was determined according to: FICI ≤ 0.5 refers to synergy, 0.5 < FICI ≤ 1 refers to additivity, 1 < FICI ≤ 4 refers to indifference, and FICI > 4 is defined as antagonism (Tsuji and Rybak [2006]).

[8] = system: S. aureus ATCC43300 (MRSA); test: MIC assay; type: cell-based; conditions: Staphylococcus aureus; MHB, 1 × 10^5 CFU/ml, 37 °C, 18–24 h, no visible growth, triplicate
Procedure: as §1

S. suis CVCC606 = conditions: data from previous results; ref Jiao et al. [2015]; cited from earlier work
Excerpt: (§3) Table 2 MIC assays of H1, H2, H3, H6, H8, NZ2114, and vancomycin against G^+ and G^− pathogens | column: MIC (μM) / Van

S. suis CVCC3928 = conditions: data from previous results; ref Jiao et al. [2015]; cited from earlier work
Excerpt: as §3

S. suis CVCC3309 = conditions: data from previous results; ref Jiao et al. [2015]; cited from earlier work
Excerpt: as §3

S. aureus ATCC25923 = test: MIC assay; type: cell-based, Staphylococcus aureus; conditions: Staphylococcus aureus, ATCC25923; MHB, 1 × 10^5 CFU/ml, 37 °C, 18–24 h, no visible growth, triplicate
Procedure: as §1

S. aureus ATCC6538 = test: MIC assay; type: cell-based, Staphylococcus aureus; conditions: Staphylococcus aureus, ATCC6538; MHB, 1 × 10^5 CFU/ml, 37 °C, 18–24 h, no visible growth, triplicate
Procedure: as §1

rabbit and human RBCs = conditions: ref Yang et al. [2011], Zhang et al. [2014]; cited from earlier work
Excerpt: Although the values were higher than NZ2114 due to the high charge and hydrophilicity, they were still very low in the range of MICs. […] Owing to contribution from the three pairs of disulfide bond into th ...

## CC[C@H](C)[C@@H]1NC(=O)[C@H](CO)NC(=O)[C@H](CCCCN)NC(=O)[C@@H]2CSSC[C@@H](C(=O)N[C@@H](Cc3ccc(O)cc3)C(=O)O)NC(=O)[C@H](CCCCN)NC(=O)[C@@H]3CSSC[C@H](NC(=O)[C@H](CCCNC(=N)N)NC(=O)[C@H](CC(C)C)NC(=O)[C@H](CC(=O)O)NC(=O)[C@H](CC(=O)O)NC(=O)[C@H](CCC(=O)O)NC(=O)[C@H](CC(N)=O)NC(=O)[C@H](Cc4c[nH]c5ccccc45)NC(=O)[C@@H]4CCCN4C(=O)CNC(=O)[C@H](CC(N)=O)NC(=O)[C@@H](NC(=O)CNC(=O)[C@H](Cc4ccccc4)NC(=O)CN)CSSC[C@H](NC(=O)[C@H](Cc4ccc(O)cc4)NC(=O)CNC(=O)CNC(=O)[C@H](CCCCN)NC(=O)[C@H](Cc4ccc(O)cc4)NC(=O)CNC(=O)[C@H](CCCCN)NC1=O)C(=O)N[C@@H](C)C(=O)N[C@@H](CCCCN)C(=O)NCC(=O)NCC(=O)N[C@@H](Cc1ccccc1)C(=O)N[C@@H](C(C)C)C(=O)N3)C(=O)N[C@@H](Cc1c[nH]cn1)C(=O)N[C@@H](CC(N)=O)C(=O)N[C@@H](CCCCN)C(=O)N2 [H3] (H-GFGCNGPWNEDDLRCHNKCKSIKGYKGGYCAKGGFVCKCY-OH; disulfide 4-30, 15-37, 19-39 (inferred); N-terminus and C-terminus assumed)
S. aureus ATCC43300 [1]; 1× MIC
  PAE: 0.55 h and 0.55 ± 0.13 h
S. aureus ATCC43300 [1]; 2× MIC
  PAE: 1.55 ± 0.07 h
Mice red blood cells
  hemolytic activity: little or no hemolytic activity
S. aureus ATCC43300 [2]; pepsin (pH 2.0)
  MIC after Pepsin: 0.057 µM (≈ 0.251 µg/mL)
S. aureus ATCC43300 [2]; proteinase K (pH 7.0)
  MIC after Proteinase K: 0.114 µM (≈ 0.502 µg/mL)
S. aureus ATCC43300 [2]; trypsin (pH 8.0)
  MIC after Trypsin: 0.057 µM (≈ 0.251 µg/mL)
S. aureus ATCC43300 [3]; incubated in 50 mM sodium chloride solution
  MIC in 50 mM NaCl: 0.057 µM (≈ 0.251 µg/mL)
S. aureus ATCC43300 [3]; incubated in 100 mM sodium chloride solution
  MIC in 100 mM NaCl: 0.057 µM (≈ 0.251 µg/mL)
S. aureus ATCC43300 [3]; incubated in 200 mM sodium chloride solution
  MIC in 200 mM NaCl: 0.057 µM (≈ 0.251 µg/mL)
S. aureus ATCC43300 [3]; incubated in 300 mM sodium chloride solution
  MIC in 300 mM NaCl: 0.057 µM (≈ 0.251 µg/mL)
S. aureus ATCC43300 [3]; incubated in 400 mM sodium chloride solution
  MIC in 400 mM NaCl: 0.114 µM (≈ 0.502 µg/mL)
S. aureus ATCC43300 [4]; pH 2, 37 °C for 4 h
  MIC after incubation at pH2: 0.057 μM
S. aureus ATCC43300 [4]; pH 4, 37 °C for 4 h
  MIC after incubation at pH4: 0.057 μM
S. aureus ATCC43300 [4]; pH 6, 37 °C for 4 h
  MIC after incubation at pH6: 0.114 μM
S. aureus ATCC43300 [4]; pH 8, 37 °C for 4 h
  MIC after incubation at pH8: 0.057 μM
S. aureus ATCC43300 [4]; pH 10, 37 °C for 4 h
  MIC after incubation at pH10: 0.057 μM
S. aureus ATCC43300 [5]; 1 h at 4 °C in deionized water
  MIC after incubation at 4 °C: 0.057 µM (≈ 0.251 µg/mL)
S. aureus ATCC43300 [5]; 1 h at 20 °C in deionized water
  MIC after incubation at 20 °C: 0.057 µM (≈ 0.251 µg/mL)
S. aureus ATCC43300 [5]; 1 h at 40 °C in deionized water
  MIC after incubation at 40 °C: 0.057 µM (≈ 0.251 µg/mL)
S. aureus ATCC43300 [5]; 1 h at 60 °C in deionized water
  MIC after incubation at 60 °C: 0.057 µM (≈ 0.251 µg/mL)
S. aureus ATCC43300 [5]; 1 h at 80 °C in deionized water
  MIC after incubation at 80 °C: 0.057 µM (≈ 0.251 µg/mL)
S. aureus ATCC43300 [5]; 1 h at 100 °C in deionized water
  MIC after incubation at 100 °C: 0.114 µM (≈ 0.502 µg/mL)
[6]
  incubation time after which regrowth occurred: 8 h
S. aureus ATCC43300 [7]; in combination with ampicillin
  MICc (MIC of the most effective combination): 0.056 µM
S. aureus ATCC43300 [7]; in combination with ciprofloxacin
  MICc (MIC of the most effective combination): 0.056 µM
S. aureus ATCC43300 [7]; in combination with rifampicin
  MICc (MIC of the most effective combination): 0.056 µM
S. aureus ATCC43300 [7]; in combination with vancomycin
  MICc (MIC of the most effective combination): 0.028 µM
S. aureus ATCC43300 [7]; drug alone, read-out: MICa (MIC of drug alone)
  MIC: 0.056 µM

## CN[C@H](CC(C)C)C(=O)N[C@H]1C(=O)N[C@@H](CC(N)=O)C(=O)N[C@H]2C(=O)N[C@H]3C(=O)N[C@H](C(=O)N[C@H](C(=O)O)c4cc(O)cc(O)c4-c4cc3ccc4O)[C@H](O)c3ccc(c(Cl)c3)Oc3cc2cc(c3O[C@@H]2O[C@H](CO)[C@@H](O)[C@H](O)[C@H]2O[C@H]2C[C@](C)(N)[C@H](O)[C@H](C)O2)Oc2ccc(cc2Cl)[C@H]1O [vancomycin]
S. aureus ATCC43300 [1]; 2× MIC
  PAE: 1.72 ± 0.11 h
[8]
  MIC: 0.714 µM (≈ 1.03 µg/mL)
S. suis CVCC606
  MIC: 0.172^b μM
S. suis CVCC3928
  MIC: 0.172^b μM
S. suis CVCC3309
  MIC: 0.172^b μM
S. aureus ATCC25923
  MIC: 0.172 µM (≈ 0.249 µg/mL)
S. aureus ATCC6538
  MIC: 1.43 µM (≈ 2.07 µg/mL)
S. aureus ATCC43300 [7]; Staphylococcus aureus, ATCC43300, read-out: MICa (MIC of drug alone)
  MIC: 0.714 µM
S. aureus ATCC43300 [7]; in combination with H1
  MICc (MIC of the most effective combination): 0.714 µM
  FIC: 1
S. aureus ATCC43300 [7]; in combination with H2
  MICc (MIC of the most effective combination): 0.714 µM
  FIC: 1
S. aureus ATCC43300 [7]; in combination with H3
  MICc (MIC of the most effective combination): 0.714 µM
  FIC: 1

## Plectasin
Rabbit and human RBCs
  hemolysis: no hemolysis
